Measurements from patent publication US8367094B2, “Antimicrobial material and method for making the same” (priority 2008, dated 2013).

Assays:
S. aureus = experiment: in vitro agar zone of inhibition (ZOI) test; assay type: cell-based; details: 24 hours
Method: In an experimental procedure, using a commercially-available, medical grade polyurethane (PU) solution (available, for example from ChronoFlex AR, CardioTech International, Inc. of Woburn, Mass.), silver salt(s) is/are manually incorporated into the solution. The silver-loaded ChronoFlex solution is spread onto glass, and dried in a circulating oven at 80 C for 1.5 hours. The loaded PU film was allowed to equilibrate at RT for at least two days, and subsequently demolded. The film was manually cut into circles by means of a cork borer, and placed into serially-labeled Petri dishes. The microbiology technician was blinded regarding which silver salts were incorporated into the film. Two types of silver salts were tested as described generally above: (1) soluble salts for quick release, and (2) an insoluble salt for longevity.
If the test samples show a “zone of inhibition” (“ZOI”) the specimen thus display the capacity to kill the microorganisms tested. The ZOI is measured in mm; the greater the ZOI distance, the more powerful is the microbiocidal effect. Note that, prior to application, the test films were sterilized using short-wave UV at a distance of 2 inches for 10 seconds.
Using a 10 mm sample disc, the microbial growth inhibition was measured from the edge of each sample disc, producing antimicrobial results in accordance with the following Table:

P. aeruginosa = details: known in the art; cited from earlier work

Structure (SMILES): O=C([O-])C(F)(F)F.[Ag+] [silver trifluoroacetate]
- microbiocidal activity against S. aureus, in words (S. aureus): effective against Gram-positives, but for very short periods of time

Structure (SMILES): [H]/N=C(\N/C(=N/[H])NCCCCCCNC(=N)NC(=N)Nc1ccc(Cl)cc1)Nc1ccc(Cl)cc1 [chlorhexidine]
- effectiveness against Gram-negative rods (such as pseudomonas aeruginosa) (P. aeruginosa): somewhat ineffective

Structure (SMILES): O=C([O-])c1ccccc1.[Ag+] [silver benzoate]
- microbiocidal activity against S. aureus, in words (S. aureus): totally ineffective

Structure (SMILES): CC(O)C(=O)[O-].[Ag+] (stereo not shown) [silver lactate]
- microbiocidal activity against S. aureus, in words (S. aureus): totally ineffective
